# Assays:
# Monoglyceride lipase = biological target: T1, Monoglyceride lipase (Mus musculus, UniProt O35678); test: Inhibition of mouse MAGL using 2-AG as substrate incubated for 30 mins
# T1 sequence (O35678 whole entry): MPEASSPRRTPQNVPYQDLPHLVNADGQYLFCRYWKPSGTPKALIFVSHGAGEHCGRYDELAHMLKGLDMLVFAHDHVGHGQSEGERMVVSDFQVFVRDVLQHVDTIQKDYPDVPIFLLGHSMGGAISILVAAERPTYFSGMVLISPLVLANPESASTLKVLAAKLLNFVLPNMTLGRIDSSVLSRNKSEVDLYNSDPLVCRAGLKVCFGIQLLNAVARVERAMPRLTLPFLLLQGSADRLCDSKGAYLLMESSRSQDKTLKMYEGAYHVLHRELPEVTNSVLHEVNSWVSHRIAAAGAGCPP
# [1] = Distribution coefficient between 1-octanol and phosphate buffer, logD of the compound after 15 mins by shake flask assay; format: physicochemical; conditions: 1-octanol/phosphate buffer
# [2] = Drug uptake in Wistar rat brain striatum at 2 nM incubated for 30 mins by autoradiography; format: ADME, tissue-based; conditions: 0.5 h, 0.002 µM
# [3] = Drug uptake in Wistar rat brain Hippocampus at 2 nM incubated for 30 mins by autoradiography; format: ADME, tissue-based; conditions: 0.5 h, 0.002 µM
# [4] = Drug uptake in Wistar rat brain Cortex at 2 nM incubated for 30 mins by autoradiography; format: ADME, tissue-based; conditions: 0.5 h, 0.002 µM
# [5] = Drug uptake in Wistar rat brain Thalamus at 2 nM incubated for 30 mins by autoradiography; format: ADME, tissue-based; conditions: 0.5 h, 0.002 µM
# [6] = Drug uptake in Wistar rat brain Cerebellum at 2 nM incubated for 30 mins by autoradiography; format: ADME, tissue-based; conditions: 0.5 h, 0.002 µM
# [7] = Drug uptake in Wistar rat brain striatum at 5 nM incubated for 30 mins by autoradiography; format: ADME, tissue-based; conditions: 0.5 h, 0.005 µM
# [8] = Drug uptake in Wistar rat brain Hippocampus at 5 nM incubated for 30 mins by autoradiography; format: ADME, tissue-based; conditions: 0.5 h, 0.005 µM
# [9] = Drug uptake in Wistar rat brain Cortex at 5 nM incubated for 30 mins by autoradiography; format: ADME, tissue-based; conditions: 0.5 h, 0.005 µM
# [10] = Drug uptake in Wistar rat brain Thalamus at 5 nM incubated for 30 mins by autoradiography; format: ADME, tissue-based; conditions: 0.5 h, 0.005 µM
# [11] = Drug uptake in Wistar rat brain Cerebellum at 5 nM incubated for 30 mins by autoradiography; format: ADME, tissue-based; conditions: 0.5 h, 0.005 µM
# [12] = Drug uptake in Wistar rat brain incubated for 30 mins in presence of SAR127303 by autoradiography; format: ADME, tissue-based; conditions: 0.5 h
# [13] = Drug uptake in Wistar rat brain incubated for 30 mins in presence of PF-06809247 by autoradiography; format: ADME, tissue-based; conditions: 0.5 h
# [14] = Drug uptake in MAGL knockout mouse brain incubated for 30 mins by autoradiography relative to control; format: ADME, tissue-based; conditions: 0.5 h
# [15] = Drug uptake in […] mouse brain incubated for 30 mins by autoradiography; format: ADME, tissue-based; conditions: 0.5 h
# [16] = Drug uptake in wild type mouse brain at 0.74 at 4.94 nmol/kg, iv and measured after 1 min post infection by PET imaging anlaysis; format: ADME, organism-based; conditions: in vivo
# [17] = Drug uptake in C57BL/6 mouse brain at 4.41 to 6.8 nmol/kg, iv and measured after 1 min post infection by PET imaging anlaysis; format: ADME, organism-based; conditions: in vivo, dose 4.41-6.8 nmol/kg
# [18] = Inhibition of Cynomolgus monkey MAGL using 2-AG as substrate incubated for 30 mins; design: species or system Macaca fascicularis
# [19] = Stability in mouse serum at 37 degC for 2 hrs by UPLC analysis; format: ADME, cell-free; conditions: read-out: Stability
# [20] = Stability in human serum at 37 degC for 2 hrs by UPLC analysis; format: ADME, cell-free; conditions: read-out: Stability
# [21] = Protein binding in human plasma assessed as free plasma concentration incubated for 10 mins by ultracentrifugation; format: ADME, cell-free
# [22] = Protein binding in mouse plasma assessed as free plasma concentration incubated for 10 mins by ultracentrifugation; format: ADME, cell-free
# [23] = Clearance in human liver microsomes by LC/MS analysis; format: ADME, Microsome; conditions: read-out: CLH
# [24] = Clearance in mouse liver microsomes by LC/MS analysis; format: ADME, Microsome; conditions: read-out: CLH
# [25] = Drug metabolism in C57BL/6 mouse brain assessed as intact parent compound at 46.50 to 49.39 MBq, iv and measured after 20 mins post injection by radio-UPLC analysis; format: ADME, organism-based; conditions: dose 46.5-49.39 MBq, read-out: Stability
# [26] = Drug metabolism in C57BL/6 mouse brain assessed as intact parent compound at 46.50 to 49.39 MBq, iv and measured after 40 mins post injection by radio-UPLC analysis; format: ADME, organism-based; conditions: dose 46.5-49.39 MBq, read-out: Stability
# [27] = Drug metabolism in C57BL/6 mouse brain assessed as intact parent compound 46.50 to 49.39 MBq, iv and measured after 60 mins post injection by radio-UPLC analysis; format: ADME, organism-based; conditions: dose 46.5-49.39 MBq, read-out: Stability
# [28] = Metabolic stability in C57BL/6 mouse brain assessed as remaining parent compound 46.50 to 49.39 MBq, iv and measured after 90 mins post injection by radio-UPLC analysis; format: ADME, organism-based; conditions: dose 46.5-49.39 MBq, read-out: Stability
smiles,measurement,setting,value
O=C1CC(N2CCN(c3ncccn3)CC2)CN1c1ccc(N2CC[C@H](F)C2)cc1 (stereo partly specified),IC50,Monoglyceride lipase,80 nM
O=C(c1ccco1)N1CCN(C2CC(=O)N(c3ccc(-c4ccccc4F)cc3)C2)CC1 (stereo unspecified),IC50,Monoglyceride lipase,37 nM
COc1ccccc1-c1ccc(N2CC(N3CCN(c4ncccn4)CC3)CC2=O)cc1 (stereo unspecified),IC50,Monoglyceride lipase,72 nM
O=C(c1ccco1)N1CCN(C2CC(=O)N(c3cccc(-c4cccc(F)c4)c3)C2)CC1 (stereo unspecified),IC50,Monoglyceride lipase,41 nM
O=C(c1ccco1)N1CCN([C@H]2CC(=O)N(c3ccc(-c4ccc(F)cc4)cc3)C2)CC1,IC50,Monoglyceride lipase,138 nM
COc1ccccc1-c1ccc(N2CC(N3CCN(C(=O)c4ccco4)CC3)CC2=O)cc1 (stereo unspecified),IC50,Monoglyceride lipase,30 nM
O=C1CC(N2CCN(c3ncccn3)CC2)CN1c1cccc(N2CC[C@@H](F)C2)c1 (stereo partly specified),IC50,Monoglyceride lipase,10700 nM
COc1cccc(-c2ccc(N3CC(N4CCN(C(=O)c5ccco5)CC4)CC3=O)cc2)c1 (stereo unspecified),IC50,Monoglyceride lipase,9 nM
same,logD at 0.25 h,[1],2.24
same,Drug uptake,[2],Active
same,Drug uptake,[3],Active
same,Drug uptake,[4],Active
same,Drug uptake,[5],Active
same,Drug uptake,[6],Active
same,Drug uptake,[7],Active
same,Drug uptake,[8],Active
same,Drug uptake,[9],Active
same,Drug uptake,[10],Active
same,Drug uptake,[11],Active
same,Drug uptake,[12],41%
same,Drug uptake,[13],41%
same,Drug uptake,[14],41%
same,Drug uptake,[15],Not Active
same,SUV,[16],1.2
O=C(c1ccco1)N1CCN(C2CC(=O)N(c3ccc(-c4ccc(F)nc4)cc3)C2)CC1 (stereo unspecified),IC50,Monoglyceride lipase,127 nM
COc1ccccc1-c1cccc(N2CC(N3CCN(c4ncccn4)CC3)CC2=O)c1 (stereo unspecified),IC50,Monoglyceride lipase,85 nM
O=C(c1ccco1)N1CCN(C2CC(=O)N(c3cccc(N4CC[C@@H](F)C4)c3)C2)CC1 (stereo partly specified),IC50,Monoglyceride lipase,2920 nM
O=C1CC(N2CCN(c3ncccn3)CC2)CN1c1cccc(-c2ccc(F)nc2)c1 (stereo unspecified),IC50,Monoglyceride lipase,2100 nM
COc1cccc(-c2cccc(N3CC(N4CCN(C(=O)c5ccco5)CC4)CC3=O)c2)c1 (stereo unspecified),IC50,Monoglyceride lipase,15 nM
same,logD at 0.25 h,[1],2.31
same,Drug uptake,[2],Active
same,Drug uptake,[3],Active
same,Drug uptake,[4],Active
same,Drug uptake,[5],Active
same,Drug uptake,[6],Active
same,Drug uptake,[7],Active
same,Drug uptake,[8],Active
same,Drug uptake,[9],Active
same,Drug uptake,[10],Active
same,Drug uptake,[11],Active
same,Drug uptake,[12],41%
same,Drug uptake,[13],41%
same,Drug uptake,[14],54%
same,Drug uptake,[15],Not Active
same,SUV,[17],0.6
COc1cccc(-c2ccc(N3CC(N4CCN(c5ncccn5)CC4)CC3=O)cc2)c1 (stereo unspecified),IC50,Monoglyceride lipase,20 nM
O=C1CC(N2CCN(c3ncccn3)CC2)CN1c1cccc(N2CC[C@H](F)C2)c1 (stereo partly specified),IC50,Monoglyceride lipase,9300 nM
COc1cccc(-c2cccc(N3CC(N4CCN(c5ncccn5)CC4)CC3=O)c2)c1 (stereo unspecified),IC50,Monoglyceride lipase,39 nM
O=C1CC(N2CCN(c3ncccn3)CC2)CN1c1cccc(-c2cccnc2F)c1 (stereo unspecified),IC50,Monoglyceride lipase,305 nM
O=C(c1ccco1)N1CCN([C@@H]2CC(=O)N(c3ccc(-c4ccc(F)cc4)cc3)C2)CC1,IC50,Monoglyceride lipase,8 nM
same,logD at 0.25 h,[1],2.37
same,IC50,[18],14 nM
same,remaining at 2 h,[19],> 95%
same,remaining at 2 h,[20],> 95%
same,fraction unbound at 10 min,[21],0.12
same,fraction unbound at 10 min,[22],0.24
same,microsomal CLint,[23],21 µL/min/mg
same,microsomal CLint,[24],124 µL/min/mg
same,remaining at 20 min,[25],95%
same,remaining at 40 min,[26],70%
same,remaining at 1 h,[27],68%
same,SUV,[17],1.63
O=C(c1ccco1)N1CCN(C2CC(=O)N(c3ccc(N4CC[C@@H](F)C4)cc3)C2)CC1 (stereo partly specified),IC50,Monoglyceride lipase,1080 nM
Cc1ccnc(F)c1-c1cccc(N2C[C@H](N3CCN(C(=O)c4nccs4)CC3)CC2=O)c1,IC50,Monoglyceride lipase,13 nM
same,remaining at 1.5 h,[28],73%
O=C(c1ccco1)N1CCN(C2CC(=O)N(c3ccc(-c4ccc(F)cc4)cc3)C2)CC1 (stereo unspecified),IC50,Monoglyceride lipase,13 nM

# Source: ChEMBL document CHEMBL5042536, “Development of High Brain-Penetrant and Reversible Monoacylglycerol Lipase PET Tracers for Neuroimaging” (J Med Chem, 2022)
